Measured values as given in patent US20240269139A1, “COMPOUNDS FOR TARGETED PROTEIN DEGRADATION OF KINASES” (DANA-FARBER CANCER INSTITUTE, INC., priority 2020, published 2024).
Like-named read-outs stand apart in the source and are kept apart here.

Key:
[1] = tested on: protein kinases in MOLT-4 cells; experiment: Whole cell quantitative proteomics in MOLT-4 cells; conditions: MOLT-4, 1 μM, 5 h
Experimental: (§1) Whole cell multiplexed quantitative proteomics was employed to measure changes in abundance of the proteome in response to treatment with each of the kinase degrader molecules relative to DMSO (Table 1, Appendix I).
(§2) Cells were treated with DMSO (biological triplicate) or degrader at indicated dose and time and cells were harvested by centrifugation. […] Precipitated protein was resuspended in 4 M Urea, 50 mM HEPES pH 7.4, followed by dilution to 1 M urea with the addition of 200 mM EPPS, pH 8. Proteins were first digested with LysC (1:50: enzyme:protein) for 12 hours at room temperature. The LysC digestion was diluted to 0.5 M Urea with 200 mM EPPS pH 8 followed by digestion with trypsin (1:50; enzyme:protein) for 6 hours at 37° C. Tandem mass tag (TMT) reagents (Thermo Fisher Scientific) were dissolved in anhydrous acetonitrile (ACN) according to manufacturer's instructions. […] The 10, 11, or 16-plex labeling reactions were performed for 1.5 hours at room temperature and the reaction quenched by the addition of hydroxylamine to a final concentration of 0.3% for 15 minutes at room temperature. The sample channels were combined at a 1:1 ratio, desalted using C18 solid phase extraction cartridges (Waters®) and analyzed by LC-MS for channel ratio comparison. Samples were then combined using the adjusted volumes determined in the channel ratio analysis and dried down in a speed vacuum. The combined sample was then resuspended in 1% formic acid, and acidified (pH 2-3) before being subjected to desalting with C18 SPE (Sep-Pak®, Waters®). Samples were then offline fractionated into 96 fractions by high pH reverse-phase HPLC (Agilent® LC1260) through an aeris peptide xb-c18 column (Phenomenex®) with mobile phase A containing 5% acetonitrile and 10 mM NH4HCO3 in LC-MS grade H2O, and mobile phase B containing 90% acetonitrile and 10 mM NH4HCO3 in LC-MS grade H2O (both pH 8.0). The 96 resulting fractions were then pooled in a non-continuous manner into 24 fractions and desalted using C18 solid phase extraction plates (SOLA®, Thermo Fisher Scientific) followed by subsequent mass spectrometry analysis.
(§3) Data were collected using an Orbitrap Fusion™ Lumos™ mass spectrometer (Thermo Fisher Scientific, San Jose, CA, USA) coupled with a Proxeon EASY-nLC™ 1200 LC pump (Thermo Fisher Scientific) or an Orbitrap Eclipse™ Tribrid™ mass spectrometer (Thermo Fisher Scientific, San Jose, CA, USA) coupled with an UltiMate™ 3000 RSLCnano System. Peptides were separated on an EasySpray™ ES803a/ES803a.rev2 75 μm inner diameter microcapillary column (ThermoFisher Scientific).
(§4) Data dependent MS2 spectra were acquired in the ion trap with a normalized collision energy (NCE) set at 35%, AGC target set to 1.8×10^4 and a maximum injection time of 120 ms. MS3 scans were acquired in the Orbitrap with HCD collision energy set to 55%. AGC target set to 2×10^5, maximum injection time of 150 ms, resolution at 50,000 and with a maximum synchronous precursor selection (SPS) precursors set to 10.
(§5) Proteome Discoverer™ 2.1, 2.2 or 2.4 (Thermo Fisher Scientific) was used for .RAW file processing and controlling peptide and protein level false discovery rates, assembling proteins from peptides, and protein quantification from peptides.

[2] = molecular target: protein kinases in MOLT-4 cells (Homo sapiens, UniProt P41240); experiment: Whole cell quantitative proteomics in MOLT-4 cells; conditions: compared with the library; MOLT-4, 1 μM, 5 h
Experimental: as §1, §2, §3, §4, §5

[3] = tested on: protein kinases (human kinome); format: cell-based; conditions: for kinases the bifunctional compound degrades: as stated for the structure in the embodiments; for Kinase hits: kinases significantly downregulated vs DMSO (fold change cutoff −1.25, P-value<0.01), ≤8 h, 0.1-5 μM degrader, 7 cell lines; for Total no. kinase hits: number of degraded kinases per library compound
[4] = molecular target: extended human kinome (kinase-like proteins) (Homo sapiens, UniProt Q16875); experiment: Whole cell quantitative proteomics: extended kinome hits; conditions: Accession Q16875; experiment wp068
[5] = molecular target: protein kinases (human kinome) (Homo sapiens, UniProt P49840); format: cell-based; conditions: GSK3A P49840; experiment wp068
[6] = molecular target: protein kinases (human kinome) (Homo sapiens, UniProt P48736); format: cell-based
[7] = molecular target: protein kinases (human kinome) (Homo sapiens, UniProt Q96BR1); format: cell-based
[8] = molecular target: T1, protein kinases (human kinome) (Homo sapiens, UniProt Q9UQ88); format: cell-based
T1 sequence (Q9UQ88 1-783): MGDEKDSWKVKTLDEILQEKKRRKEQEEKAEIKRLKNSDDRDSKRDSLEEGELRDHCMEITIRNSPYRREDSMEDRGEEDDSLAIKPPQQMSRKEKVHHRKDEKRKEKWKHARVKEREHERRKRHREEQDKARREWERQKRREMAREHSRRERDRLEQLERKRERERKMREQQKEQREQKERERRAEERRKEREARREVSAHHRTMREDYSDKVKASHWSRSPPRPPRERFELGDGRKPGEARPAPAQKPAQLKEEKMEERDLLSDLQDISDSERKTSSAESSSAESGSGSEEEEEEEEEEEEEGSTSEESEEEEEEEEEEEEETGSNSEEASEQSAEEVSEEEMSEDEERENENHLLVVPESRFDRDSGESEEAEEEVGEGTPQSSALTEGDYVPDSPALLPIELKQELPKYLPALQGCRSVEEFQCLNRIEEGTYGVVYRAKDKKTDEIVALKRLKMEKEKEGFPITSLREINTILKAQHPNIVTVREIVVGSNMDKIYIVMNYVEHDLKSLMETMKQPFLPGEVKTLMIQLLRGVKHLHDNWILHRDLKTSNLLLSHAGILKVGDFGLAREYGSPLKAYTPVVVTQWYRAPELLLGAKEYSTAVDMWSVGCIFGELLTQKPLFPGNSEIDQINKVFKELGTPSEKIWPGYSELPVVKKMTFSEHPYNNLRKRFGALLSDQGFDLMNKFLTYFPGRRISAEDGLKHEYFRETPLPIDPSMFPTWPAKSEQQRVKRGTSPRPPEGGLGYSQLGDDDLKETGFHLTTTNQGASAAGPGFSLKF

[9] = molecular target: protein kinases (human kinome) (Homo sapiens, UniProt P29597); format: cell-based; conditions: experiment wp195
[10] = molecular target: protein kinases (human kinome) (Homo sapiens, UniProt P42684); format: cell-based
[11] = molecular target: T2, protein kinases (human kinome) (Homo sapiens, UniProt P29323); format: cell-based
T2 sequence (P29323 19-1055): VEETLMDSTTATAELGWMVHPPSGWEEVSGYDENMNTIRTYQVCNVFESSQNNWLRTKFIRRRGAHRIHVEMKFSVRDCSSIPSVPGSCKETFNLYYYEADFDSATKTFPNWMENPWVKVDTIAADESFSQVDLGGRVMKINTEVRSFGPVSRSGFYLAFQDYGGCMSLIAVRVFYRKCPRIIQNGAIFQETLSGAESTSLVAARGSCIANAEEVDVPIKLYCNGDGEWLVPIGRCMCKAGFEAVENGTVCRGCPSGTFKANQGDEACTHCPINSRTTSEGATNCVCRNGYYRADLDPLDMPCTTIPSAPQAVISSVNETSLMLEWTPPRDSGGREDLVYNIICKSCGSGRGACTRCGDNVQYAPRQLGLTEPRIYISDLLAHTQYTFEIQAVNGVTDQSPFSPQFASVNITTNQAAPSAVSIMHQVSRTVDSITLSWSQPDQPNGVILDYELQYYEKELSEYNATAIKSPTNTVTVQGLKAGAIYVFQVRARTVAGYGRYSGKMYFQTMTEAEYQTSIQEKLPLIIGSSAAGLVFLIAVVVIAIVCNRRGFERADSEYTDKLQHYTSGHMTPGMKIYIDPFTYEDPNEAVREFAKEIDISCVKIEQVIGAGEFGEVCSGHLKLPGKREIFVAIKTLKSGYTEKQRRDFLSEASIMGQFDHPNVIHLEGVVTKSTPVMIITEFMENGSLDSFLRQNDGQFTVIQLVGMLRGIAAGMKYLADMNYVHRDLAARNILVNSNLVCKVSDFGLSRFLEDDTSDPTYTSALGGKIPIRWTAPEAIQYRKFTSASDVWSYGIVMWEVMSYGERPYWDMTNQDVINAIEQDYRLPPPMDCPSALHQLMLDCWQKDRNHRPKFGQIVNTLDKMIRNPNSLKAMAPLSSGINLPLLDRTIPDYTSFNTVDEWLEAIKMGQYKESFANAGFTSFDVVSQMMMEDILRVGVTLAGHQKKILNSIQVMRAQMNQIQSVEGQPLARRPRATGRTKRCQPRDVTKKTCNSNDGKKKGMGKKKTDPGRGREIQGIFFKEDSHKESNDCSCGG

[12] = molecular target: protein kinases (human kinome) (Homo sapiens, UniProt Q9H0K1); format: cell-based; conditions: experiment wp195
[13] = molecular target: protein kinases in MOLT-4 cells (Homo sapiens, UniProt O14965); experiment: Whole cell quantitative proteomics in MOLT-4 cells; conditions: MOLT-4, 1 μM, 5 h; validated by immunoblotting
Experimental: as §1, §2, §3, §4, §5

[14] = tested on: MM1.S cells; experiment: CellTiter-Glo viability assay; format: cell-based, H. sapiens; conditions: MM.1S multiple myeloma cell line, 72 hours
Experimental: MM1.S (purchased from ATCC) was seeded in a 96-well microplate at 10,000 cells per […] well in RPMI-1(40 media supplemented with 10% FBS and incubated with compounds (final DMSO concentration at 0.1%). Relative cell viability was measured 72 hours after drug addition using CellTiter-Glo® (Promega) according to the manufacturer's protocol. Each analysis was performed in biological triplicate.

[15] = CLK1 P49759-3, experiment wp068
[16] = Experiment wp068, direction of change down

Sequence of protein kinases (human kinome) (Homo sapiens, UniProt Q9H0K1) (Q9H0K1 whole entry): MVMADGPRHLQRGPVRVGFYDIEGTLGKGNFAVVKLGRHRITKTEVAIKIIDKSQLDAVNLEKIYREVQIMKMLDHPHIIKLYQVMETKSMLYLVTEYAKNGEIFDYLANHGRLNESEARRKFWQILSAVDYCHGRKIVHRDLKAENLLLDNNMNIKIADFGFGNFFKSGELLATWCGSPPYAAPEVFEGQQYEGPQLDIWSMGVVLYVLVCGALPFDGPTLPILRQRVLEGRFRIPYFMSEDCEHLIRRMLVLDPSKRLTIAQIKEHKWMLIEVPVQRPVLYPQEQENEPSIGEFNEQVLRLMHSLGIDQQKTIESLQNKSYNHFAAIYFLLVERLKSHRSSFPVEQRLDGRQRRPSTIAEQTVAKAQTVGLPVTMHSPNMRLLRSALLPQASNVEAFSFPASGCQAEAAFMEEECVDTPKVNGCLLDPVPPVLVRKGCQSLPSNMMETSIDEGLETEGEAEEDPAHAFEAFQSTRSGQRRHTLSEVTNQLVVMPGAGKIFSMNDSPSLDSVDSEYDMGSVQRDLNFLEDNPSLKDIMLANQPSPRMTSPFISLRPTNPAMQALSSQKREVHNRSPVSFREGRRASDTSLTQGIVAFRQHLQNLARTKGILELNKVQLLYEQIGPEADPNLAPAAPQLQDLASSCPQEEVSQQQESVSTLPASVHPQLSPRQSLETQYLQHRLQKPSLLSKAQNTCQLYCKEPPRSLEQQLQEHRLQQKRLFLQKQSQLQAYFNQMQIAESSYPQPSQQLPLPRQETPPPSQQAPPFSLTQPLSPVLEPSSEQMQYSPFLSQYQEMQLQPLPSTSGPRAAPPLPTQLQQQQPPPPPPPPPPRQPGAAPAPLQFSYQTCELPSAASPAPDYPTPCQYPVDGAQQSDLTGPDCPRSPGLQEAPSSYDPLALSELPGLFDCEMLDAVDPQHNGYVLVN
Sequence of protein kinases (human kinome) (Homo sapiens, UniProt P29597) (P29597 whole entry): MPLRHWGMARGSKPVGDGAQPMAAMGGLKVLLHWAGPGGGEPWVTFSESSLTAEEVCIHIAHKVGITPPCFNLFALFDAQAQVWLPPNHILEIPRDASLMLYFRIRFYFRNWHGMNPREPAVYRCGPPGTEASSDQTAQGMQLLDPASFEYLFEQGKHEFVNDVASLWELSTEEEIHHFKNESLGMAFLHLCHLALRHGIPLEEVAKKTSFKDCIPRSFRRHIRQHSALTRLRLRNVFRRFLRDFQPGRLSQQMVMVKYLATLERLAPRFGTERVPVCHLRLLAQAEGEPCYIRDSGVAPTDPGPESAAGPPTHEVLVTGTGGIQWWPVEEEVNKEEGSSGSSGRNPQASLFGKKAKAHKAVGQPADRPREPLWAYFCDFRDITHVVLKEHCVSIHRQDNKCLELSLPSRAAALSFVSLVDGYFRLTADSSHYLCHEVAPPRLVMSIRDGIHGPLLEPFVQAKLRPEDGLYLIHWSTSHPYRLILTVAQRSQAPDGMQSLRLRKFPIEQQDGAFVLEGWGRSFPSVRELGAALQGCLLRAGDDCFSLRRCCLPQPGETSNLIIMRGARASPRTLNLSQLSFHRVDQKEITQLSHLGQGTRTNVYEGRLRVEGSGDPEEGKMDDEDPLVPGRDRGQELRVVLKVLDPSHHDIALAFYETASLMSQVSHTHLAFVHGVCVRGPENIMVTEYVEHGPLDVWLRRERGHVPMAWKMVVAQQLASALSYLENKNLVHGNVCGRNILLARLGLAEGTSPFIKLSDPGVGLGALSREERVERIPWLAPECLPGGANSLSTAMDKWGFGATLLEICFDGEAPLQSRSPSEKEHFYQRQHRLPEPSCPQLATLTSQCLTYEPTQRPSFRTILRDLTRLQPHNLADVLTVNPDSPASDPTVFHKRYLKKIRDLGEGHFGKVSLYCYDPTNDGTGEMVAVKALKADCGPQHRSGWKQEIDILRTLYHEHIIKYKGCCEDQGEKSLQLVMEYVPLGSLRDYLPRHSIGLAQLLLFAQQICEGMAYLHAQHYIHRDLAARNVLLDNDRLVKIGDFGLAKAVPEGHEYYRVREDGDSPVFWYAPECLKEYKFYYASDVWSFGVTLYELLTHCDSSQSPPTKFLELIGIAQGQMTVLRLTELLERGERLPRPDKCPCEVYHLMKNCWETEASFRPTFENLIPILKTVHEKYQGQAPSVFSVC
Sequence of protein kinases (human kinome) (Homo sapiens, UniProt Q96BR1) (Q96BR1 whole entry): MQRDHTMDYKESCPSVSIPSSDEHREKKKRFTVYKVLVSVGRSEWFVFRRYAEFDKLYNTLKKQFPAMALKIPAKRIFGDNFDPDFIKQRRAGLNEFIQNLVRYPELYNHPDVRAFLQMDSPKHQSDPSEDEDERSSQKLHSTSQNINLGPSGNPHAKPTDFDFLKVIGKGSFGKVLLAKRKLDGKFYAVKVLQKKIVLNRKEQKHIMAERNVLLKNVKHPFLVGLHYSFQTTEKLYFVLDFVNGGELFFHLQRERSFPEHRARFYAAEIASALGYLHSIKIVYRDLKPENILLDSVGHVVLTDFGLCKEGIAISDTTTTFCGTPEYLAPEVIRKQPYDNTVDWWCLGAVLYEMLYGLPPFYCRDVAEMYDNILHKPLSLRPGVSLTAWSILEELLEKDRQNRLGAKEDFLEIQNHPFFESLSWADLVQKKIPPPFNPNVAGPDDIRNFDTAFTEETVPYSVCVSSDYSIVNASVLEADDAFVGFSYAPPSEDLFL
Sequence of protein kinases (human kinome) (Homo sapiens, UniProt P42684) (P42684 whole entry): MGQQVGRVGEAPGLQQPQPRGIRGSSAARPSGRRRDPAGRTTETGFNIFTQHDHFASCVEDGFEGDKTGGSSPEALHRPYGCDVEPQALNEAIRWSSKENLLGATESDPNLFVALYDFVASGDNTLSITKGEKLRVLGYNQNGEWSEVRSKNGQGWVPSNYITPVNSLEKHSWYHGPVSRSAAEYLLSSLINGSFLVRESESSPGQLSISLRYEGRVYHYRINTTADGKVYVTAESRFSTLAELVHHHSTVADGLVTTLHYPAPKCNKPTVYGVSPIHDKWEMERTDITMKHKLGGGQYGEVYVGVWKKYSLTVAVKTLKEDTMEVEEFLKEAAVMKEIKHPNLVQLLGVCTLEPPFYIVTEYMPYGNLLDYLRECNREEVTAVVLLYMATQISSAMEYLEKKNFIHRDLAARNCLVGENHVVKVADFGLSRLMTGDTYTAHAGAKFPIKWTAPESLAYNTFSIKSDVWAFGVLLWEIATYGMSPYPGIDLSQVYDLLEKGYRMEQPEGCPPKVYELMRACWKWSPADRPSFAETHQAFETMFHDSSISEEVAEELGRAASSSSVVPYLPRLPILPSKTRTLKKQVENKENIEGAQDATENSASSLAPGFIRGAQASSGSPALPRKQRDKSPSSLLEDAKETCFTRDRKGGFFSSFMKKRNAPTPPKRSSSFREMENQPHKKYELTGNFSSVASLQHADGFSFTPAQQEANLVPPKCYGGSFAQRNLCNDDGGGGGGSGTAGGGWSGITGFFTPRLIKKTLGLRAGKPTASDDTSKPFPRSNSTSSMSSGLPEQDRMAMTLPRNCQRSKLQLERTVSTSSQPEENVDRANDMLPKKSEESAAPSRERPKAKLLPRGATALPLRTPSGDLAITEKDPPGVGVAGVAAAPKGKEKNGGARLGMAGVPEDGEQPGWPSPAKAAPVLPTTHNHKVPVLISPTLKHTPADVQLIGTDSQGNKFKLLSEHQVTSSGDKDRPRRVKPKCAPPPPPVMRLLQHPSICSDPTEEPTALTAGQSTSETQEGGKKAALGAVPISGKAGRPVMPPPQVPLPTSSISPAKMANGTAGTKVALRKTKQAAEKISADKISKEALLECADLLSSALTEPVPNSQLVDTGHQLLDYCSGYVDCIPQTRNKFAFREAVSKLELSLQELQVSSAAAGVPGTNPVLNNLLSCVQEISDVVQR
Sequence of protein kinases (human kinome) (Homo sapiens, UniProt P49840) (P49840 whole entry): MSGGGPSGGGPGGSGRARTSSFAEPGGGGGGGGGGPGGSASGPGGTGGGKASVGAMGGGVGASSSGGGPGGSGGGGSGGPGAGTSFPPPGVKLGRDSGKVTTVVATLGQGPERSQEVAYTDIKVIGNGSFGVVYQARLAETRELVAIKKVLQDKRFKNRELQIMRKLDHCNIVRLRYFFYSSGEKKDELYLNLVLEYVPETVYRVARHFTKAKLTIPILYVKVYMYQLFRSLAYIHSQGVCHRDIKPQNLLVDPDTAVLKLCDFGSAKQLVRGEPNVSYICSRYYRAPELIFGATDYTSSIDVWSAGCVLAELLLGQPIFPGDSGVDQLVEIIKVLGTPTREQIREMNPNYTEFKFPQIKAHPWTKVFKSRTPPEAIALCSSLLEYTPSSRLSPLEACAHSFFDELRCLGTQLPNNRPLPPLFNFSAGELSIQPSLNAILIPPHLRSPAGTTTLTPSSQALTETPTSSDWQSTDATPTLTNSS
Sequence of protein kinases in MOLT-4 cells (Homo sapiens, UniProt O14965) (O14965 whole entry): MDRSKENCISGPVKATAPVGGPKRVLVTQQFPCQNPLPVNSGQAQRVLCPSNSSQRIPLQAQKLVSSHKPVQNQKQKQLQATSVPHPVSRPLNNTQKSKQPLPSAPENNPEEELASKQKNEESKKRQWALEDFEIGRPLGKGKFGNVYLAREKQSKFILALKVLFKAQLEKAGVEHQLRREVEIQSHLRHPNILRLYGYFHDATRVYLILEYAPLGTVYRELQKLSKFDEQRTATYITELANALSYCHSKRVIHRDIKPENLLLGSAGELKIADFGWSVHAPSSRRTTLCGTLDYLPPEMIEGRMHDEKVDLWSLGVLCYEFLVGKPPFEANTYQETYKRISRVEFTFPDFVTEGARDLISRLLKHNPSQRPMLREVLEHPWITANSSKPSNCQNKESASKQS

Cc1nc(Nc2ncc(C(=O)Nc3c(C)cccc3Cl)s2)cc(N2CCN(CC(=O)NCCCCNC(=O)COc3cccc4c3C(=O)N(C3CCC(=O)NC3=O)C4=O)CC2)n1 (stereo not drawn) [DB-3-291, N-(2-chloro-6-methylphenyl)-2-((6-(4-(2-((4-(2-((2-(2,6-dioxopiperidin-3-yl)-1,3-dioxoisoindolin-4-yl)oxy)acetamido)butyl)amino)-2-oxoethyl)piperazin-1-yl)-2-methylpyrimidin-4-yl)amino)thiazole-5-carboxamide]
selectivity among CSK degraders [1]: greatest selectivity
degradation of CSK [2]: strongest degradation of CSK
kinases the bifunctional compound degrades [3]: ABL2, BLK, CSK, and WEE1
Kinase hits [3]: ABL2, BLK, CSK, WEE1
Total no. kinase hits [3]: 4

O=C1CCC(N2C(=O)c3cccc(NCCOCCOCCOCCOCCC(=O)Nc4cccc(CN5CCC(NC(=O)c6[nH]ncc6NC(=O)c6c(Cl)cccc6Cl)CC5)c4)c3C2=O)C(=O)N1 (stereo not drawn) [FMF.04.147.1]
logFC PFKFB3 [4]: −0.4462
logFC GSK3B ([3]; Accession P49841-2, experiment wp068, direction down): −0.6218
logFC ([3]; CDK9 (P50750-2) protein abundance, degrader vs DMSO, down): −0.9142
logFC [3, 15]: −0.6462
logFC CLK1 [3, 15]: −0.6462
logFC CDK9 (P50750-2) ([3]; Experiment wp068): −0.9142
logFC GSK3B ([3]; GSK3B P49841-2, experiment wp068): −0.6218
logFC [5]: −0.5346
logFC GSK3A [5]: −0.5346
logFC PIK3CG (P48736) [6, 16]: −0.3581
logFC ([6]; PIK3CG (P48736), experiment wp068): −0.3581
logFC SGK3 (Q96BR1-1) [7, 16]: −0.3389
logFC ([7]; SGK3 (Q96BR1-1), experiment wp068): −0.3389
logFC ([8]; CDK11A (Q9UQ88-1), experiment wp068): −0.7386
logFC of CDK11A (Q9UQ88-1) ([8]; Experiment wp068): −0.7386

Cc1ncsc1-c1ccc([C@H](C)NC(=O)[C@@H]2C[C@@H](O)CN2C(=O)[C@@H](NC(=O)CCCCCCc2ccc(Nc3ncc4c(n3)-c3ccccc3NC(=O)N4)cc2)C(C)(C)C)cc1 [JWG.148]
logFC TYK2 (P29597) ([9]; direction of change down): −0.5187
logFC TYK2 ([9]; protein TYK2 (P29597), down): −0.5187
logFC ([10]; ABL2 (P42684) protein abundance, degrader vs DMSO, down): −0.516
logFC ABL2 (P42684) ([10]; Experiment wp195): −0.516
logFC ([11]; EPHB2 (P29323), experiment wp195): −0.3596
logFC of EPHB2 (P29323) ([11]; Experiment wp195): −0.3596
logFC of SIK2 ([12]; Accession Q9H0K1): −0.455
logFC SIK2 (Q9H0K1) ([12]; direction of change down): −0.455

COc1cc(Nc2ncc3c(n2)-c2ccc(Cl)cc2C(c2c(F)cccc2OC)=NC3)ccc1C(=O)NCCCOCCOCCOCCCNC(=O)COc1cccc2c1C(=O)N(C1CCC(=O)NC1=O)C2=O (stereo not drawn) [dAURK-4, -((9-chloro-7-(2-fluoro-6-methoxyphenyl)-5H-benzo[c]pyrimido[4,5-e]azepin-2-yl)amino)-N-(1-((2-(2,6-dioxopiperidin-3-yl)-1,3-dioxoisoindolin-4-yl)oxy)-2-oxo-7,10,13-trioxa-3-2174 azahexadecan-16-yl)-2-methoxybenzamide]
degradation of AURKA [13]: potent and selective degradation
antiproliferative effects [14]: superior antiproliferative effects over parental inhibitor alisertib
kinases the bifunctional compound degrades [3]: AURKA and AURKB
Kinase hits [3]: AURKA, AURKB
Total no. kinase hits [3]: 2
